Source: patent US5962487A, “Antipicornaviral compounds and methods for their use and preparation” (Agouron Pharmaceuticals, Inc., priority 1997, dated 1999)

Columns and labels:
HRV-14 = test: Antirhinoviral HI-HeLa Cell Culture Assay (cell protection, XTT), HRV-14; format: cell-based, human rhinovirus
Summary of the method: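 HI-HeLa cells infected at m.o.i. 0.13 (or mock-infected), 8×10^5 cells/mL, incubated with compounds for two days; XTT/PMS formazan read at 450/650 nm. EC50 is the concentration restoring formazan in infected cells to 50% of compound-free mock-infected; CC50 is 50% decrease in mock-infected cells; TI = CC50/EC50.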

[1] = biological target: T1, Rhinovirus 3C protease (RVP) serotype-14 (Human rhinovirus 14, UniProt P03303); test: Inhibition of Rhinovirus Protease, serotype 14 (FRET assay); format: biochemical; settings: read-out: kobs/I
T1 construct: Recombinant Rhinovirus 3C proteases from serotypes 14, 16, 2 or 89 were prepared; made in house
Summary of the method: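 Recombinant HRV 3C protease (50–100 nM) in 50 mM tris pH 7.6, 1 mM EDTA, 2% DMSO, with ~1 μM DABCYL-GRAVFQGPVG-EDANS FRET substrate; cleavage read as fluorescence increase. Ki: compound and enzyme preincubated 10 min at 30° C before substrate start; kobs/I from enzyme-start progress curves. Values are percent inhibition at stated μM, or Ki.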

ECHO-11 = test: Echovirus-11 MRC5 Cell Culture Assay; format: cell-based, Echovirus strain 11
Procedure: (§1) The Echovirus strain 11 (ECHO-11) and Enterovirus strain 70 (ENT-70) were purchased from American Type Culture Collection (ATCC). Virus stocks were propagated and antiviral assays were performed in MRC5 cells (ATCC). Cells were grown in Minimal Essential Medium with 10% fetal bovine serum.
(§2) The ability of compounds to protect cells against ECHO-11 or ENT-70 infection was measured by the XTT dye reduction method. Briefly, MRC5 cells were infected with ECHO-11 or ENT-70 at a multiplicity of infection (m.o.i.) of 0.0013 (ECHO-11) and 0.0017 (ENT-70) or mock-infected with medium only. Infected or uninfected cells were resuspended at 2×10^4 cells per mL and incubated with appropriate concentrations of drug. One day later, XTT/PMS was added to test plates, and the amount of formazan produced was quantified spectrophotometrically at 450/650 nm. The EC50 was calculated as the concentration of drug that increased the percentage of formazan production in drug-treated, virus-infected cells to 50% of that produced by drug-free, uninfected cells. The 50% cytotoxic dose (CC50) was calculated as the concentration of drug that decreased the percentage of formazan produced in drug-treated, uninfected cells to 50% of that produced in drug-free, uninfected cells. The therapeutic index (TI) was calculated by dividing the CC50 by the EC50.

in vitro = format: cell-based; settings: human, mrc5 cells
Procedure: as §1, §2

MRC5 cells = test: in vitro; format: cell-based
Procedure: as §1, §2

T1 sequence (P03303 1538-1719): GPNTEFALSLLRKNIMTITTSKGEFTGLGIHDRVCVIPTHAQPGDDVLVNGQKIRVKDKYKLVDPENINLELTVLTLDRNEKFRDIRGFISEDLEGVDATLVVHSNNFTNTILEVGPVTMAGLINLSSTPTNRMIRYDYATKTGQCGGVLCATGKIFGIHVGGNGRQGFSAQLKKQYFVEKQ

Compound `CCOC(=O)/C=C/[C@H](CCC(N)=O)NC(=O)[C@H](Cc1ccccc1)N(C)C(=O)[C@H](CC(C)C)NC(=O)OCc1ccccc1` [Compound 2, Ethyl-3-(CBZ-L-Leu-L-N-Me-Phe-L-Gln)-E-Propenoate] has a TI (HRV-14; CC50/EC50, HRV serotype-14, 2880 min) of 56, an EC50 (HRV-14; Rhinovirus B, HRV14, 48 h, HRV serotype-14 infected HI-HeLa cells, XTT, two days) of 1 µM and a kinact/KI [1] of 5300 M⁻¹ s⁻¹. The TI (ECHO-11; CC50/EC50, ECHO-11, 1440 min) was 18, the EC50 (ECHO-11; Echovirus, 24 h, ECHO-11 infection of MRC5 cells, XTT, one day) was 3.1 µM and the CC50 at 24 h (in vitro) was 56 µM. The CC50 (MRC5 cells) was 56 µM.
